Patent US10798946B2, “Method for managing flea beetles of the family chrysomelidae in Brassica crops” (BASF Agrochemical Products B.V., priority 2015, dated 2020)

Test system: Psylliodes chrysocephala (PSYICH; rape flea beetle)
Experiment: Field trial: flea beetle attack on winter oilseed rape, counted as crop plants with eating damage
Format: in vivo
Method: A field trial to investigate methods for flea beetle management in Brassica crops was carried out under the regime of Good Experimental Practice (GEP) in Germany, federal state of Niedersachsen. The trial was set up in a 3 time replicated, one factorial randomized block design. The plot size was 45 m^2.
The winter oilseed rape (WOSR) variety used in the trial was the commercial hybrid “Edimax CL®” carrying a tolerance against imidazolinone herbicides. As trap plant Sinapis alba, variety “Ascot” was used.
All WOSR seeds had been commercially treated with the product Aatiram65®, containing the active ingredient Thiram (650 g/I), at a dose rate of […] seeds to protect the seed from emergence diseases.
Only the WOSR seeds for the respective plots had been treated with 160 ml/100 kg seeds with a flowable concentrate containing 8% of Bacillus amyloliquefaciens ssp. plantarum MBI600 as flea beetle repellant.
For the trap plants, no seed treatment was applied.
At the day of seeding, the trap plants were seeded first in the respective plots at a seed rate of 3.6 k/ha using a plot seeder. Afterwards, the plots with WOSR treated with Aatiram65® only were seeded, then WOSR treated on top with Bacillus amyloliquefaciens ssp. plantarum MBI600. Thus, any contamination/mixing of the different seeds and seed treatments was prevented. In both cases, a WOSR seeding rate of 50 seeds per m^2 was targeted.
In order to control any undesired vegetation besides the crop and the trap plants, the commercial broad spectrum herbicide Butisan Top® was applied at a dose rate of 2.0 I/ha pre-emergence of the crop and trap plants.
After the crop was mature enough to overcome flea beetle damage (2-4 true leaf stage (BBCH 12-14)), the plots were sprayed with Pulsar 40 (active ingredient Imazamox) at a dose rate of 0.875 I/ha.
The intensity of the flea beetle attack was evaluated 26 days after seeding (DAS) and 33 DAS by counting the number of crop plants with eating damage. On the first assessment, the crop plants were in 1-2 true leaf stage (BBCH 11-12), at the later assessment, the crop plants had developed to the 1-4 true leaf stage (BBCH 11-14).

In the case of “Bacillus amyloliquefaciens ssp. plantarum MBI600 [MBI 600]”, the “infestation / number of crop plants attacked by flea beetles (in words)” value (field trial, both days of assessment) is reported as “did not reduce the infestation”, the “plants with eating damage (26 DAS)” value (number of crop plants with eating damage, 26 days after seeding, WOSR Edimax CL, BBCH 11-12, MBI600 seed treatment 160 ml/100 kg seeds of 8% flowable concentrate) is reported as 34 and the “plants with eating damage (33 DAS)” value (number of crop plants with eating damage, 33 days after seeding, WOSR Edimax CL, BBCH 11-14, MBI600 seed treatment 160 ml/100 kg seeds of 8% flowable concentrate) is reported as 34. The “plants with eating damage (26 DAS), rel.” value (relative to treatment 1 (none) = 100, 26 days after seeding) was 103 and the “plants with eating damage (33 DAS), rel.” value (relative to treatment 1 (none) = 100, 33 days after seeding) was 91.
